Assay results reported in patent US9120774B2 (University of Kansas, priority 2009, dated 2015).
Like-named read-outs stand apart in the source and are kept apart here.

How the values were obtained:
Format in all cases: cell-based
[1] = system: SkBr3 (Her2 overexpressing breast cancer cells); experiment: Anti-proliferation activity against SkBr3 cells (MTS/PMS)
Procedure, shortened: (§1)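 Viability after 72 h compound treatment (1% DMSO final, 37° C., 5% CO2) measured by MTS/PMS; plating density 2000 cells/well with overnight attachment.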

[2] = system: MCF-7 (estrogen receptor positive breast cancer cells); experiment: Anti-proliferation activity against MCF-7 cells (MTS/PMS)
Procedure, shortened: as §1

cancer cell lines = experiment: Anti-proliferative activity, statements covering several cancer cell lines; settings: for fold reduced activity versus the compound with a hydrogen at the 5-position: both breast cancer cell lines
Procedure: Upon completion of synthesis of library of compounds in Examples 23 and 24, the compounds were evaluated for anti-proliferative activity against SkBr3 (Her2 overexpressing breast cancer cells), MCF-7 (estrogen receptor positive breast cancer cells), HCT-116 (colon cancer cells characterized by wild-type p53), PL45 (pancreatic cancer cells), LNCaP (androgen sensitive prostate cancer cells) and PC-3 (androgen independent prostate cancer cells) cell lines. […] The monosubstituted benzamide variants improved activity.
(§2) Cells were maintained in a 1:1 mixture of Advanced DMEM/F12 (Gibco) supplemented with non-essential amino acids, L-glutamine (2 mM), streptomycin (500 ng/mL), penicillin (100 units/mL), and 10% FBS. Cells were grown to confluence in a humidified atmosphere (37° C., 5% CO2), seeded (2000/well, 100 μl) in 96-well plates, and allowed to attach overnight. Compound or GDA at varying concentrations in DMSO (1% DMSO final concentration) was added, and cells were returned to the incubator for 72 hours. At 72 hours, the number of viable cells was determined using an MTS/PMS cell proliferation kit (Promega) per the manufacturer's instructions. Cells incubated in 1% DMSO were used at 100% proliferation, and values were adjusted accordingly. IC50 values were calculated from separate experiments performed in triplicate using GraphPad Prism.
as §2, with “μg/mL),” for “ng/mL),”, “μL)” for “μl)”

[3] = system: LNCaP (androgen sensitive prostate cancer cells); experiment: Anti-proliferation activity against LNCaP cells; settings: Homo sapiens, LNCaP
Procedure, shortened: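 Cells seeded at 2000/well in Advanced DMEM/F12 with 10% FBS and attached overnight, then given compound in 1% DMSO final for 72 h at 37 °C, 5% CO2. Viable cells by MTS/PMS read-out, normalised to 1% DMSO as 100% proliferation. IC50 from separate triplicate experiments.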

[4] = system: PC-3 (androgen independent prostate cancer cells); experiment: Anti-proliferation activity against PC-3 cells; settings: for IC50: Homo sapiens, PC-3, read-out: IC50 PC-3
Procedure, shortened: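 Antiproliferative activity was tested in PC-3 androgen-independent prostate cancer cells. Cells grown at 37° C. with 5% CO2 in Advanced DMEM/F12 (1:1) containing non-essential amino acids, 2 mM L-glutamine, streptomycin, penicillin and 10% FBS were plated at 2000/well in 96-well plates. Proliferation was normalized to 1% DMSO controls, and IC50 values from triplicate experiments were fitted in GraphPad Prism.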

[5] = system: LN3 (metastatic human prostate cancer cells); experiment: Anti-proliferation activity against LN3 cells (MTS/PMS)
Procedure: as §2, with “μg/mL),” for “ng/mL),”, “μL)” for “μl)”

[6] = system: MM2 (metastatic mammary tumor cancer cells); experiment: Anti-proliferation activity against MM2 cells (MTS/PMS)
Procedure: as §2, with “μg/mL),” for “ng/mL),”, “μL)” for “μl)”

[7] = system: A549 (human alveolar basal epithelial cells); experiment: Anti-proliferation activity against A549 cells (MTS/PMS)
Procedure: as §2, with “μg/mL),” for “ng/mL),”, “μL)” for “μl)”

[8] = system: HCT-116 (colon cancer cells characterized by wild-type p53); experiment: Anti-proliferation activity against HCT-116 cells; settings: Homo sapiens
[9] = system: PL45 (pancreatic cancer cells); experiment: Anti-proliferation activity against PL45 cells
[10] = Homo sapiens, SK-BR-3, Table 6, 72 hours, MTS/PMS, mean ± standard deviation, read-out: IC50 SKBr3
[11] = Homo sapiens, MCF7, Table 6, 72 hours, MTS/PMS, mean ± standard deviation, read-out: IC50 MCF-7
[12] = Table 6, 72 hours, MTS/PMS, mean ± standard deviation, read-out: IC50 LnCaP
[13] = Table 6, 72 hours, MTS/PMS, mean ± standard deviation
[14] = Homo sapiens, SK-BR-3, Table 12, aliphatic chain analogues, 72 hours, read-out: IC50 SKBr3
[15] = Homo sapiens, MCF7, Table 12, aliphatic chain analogues, 72 hours, read-out: IC50 MCF-7
[16] = Homo sapiens, Table 12, aliphatic chain analogues, 72 hours
[17] = Table 12, aliphatic chain analogues, 72 hours
[18] = Homo sapiens, A549, Table 12, aliphatic chain analogues, 72 hours
[19] = Homo sapiens, SK-BR-3, Table 20, indole-2-carboxamide analogues with noviose replacements, read-out: IC50, SKBr3
[20] = Homo sapiens, MCF7, Table 20, indole-2-carboxamide analogues with noviose replacements, read-out: IC50, MCF-7
[21] = Homo sapiens, Table 20, indole-2-carboxamide analogues with noviose replacements
[22] = Table 20, indole-2-carboxamide analogues with noviose replacements
[23] = Homo sapiens, A549, Table 20, indole-2-carboxamide analogues with noviose replacements
[24] = Table 13, various sugars on 8-methyl coumarin, 72 hours
[25] = Table 4, biaryl analogues, n = 3

SMILES: CC(C)=CCc1cc(C(=O)Nc2cc3ccc(O[C@@H]4C[C@H](O)CCO4)c(C)c3oc2=O)ccc1O [18b, KU-430, 4-Hydroxy-N-(7-((2R,4R)-4-hydroxytetrahydro-2H-pyran-2-yloxy)-8-methyl-2-oxo-2H-chromen-3-yl)-3-(3-methylbut-2-enyl)benzamide]
- IC50 ([1]; Homo sapiens, SK-BR-3, Table 18, modified furanose or pyranose noviose replacements, read-out: IC50, SKBr3): 3.11 ± 0.19 µM
- IC50 ([1]; Homo sapiens, SK-BR-3, text of Example 47, read-out: IC50 SKBr3): 3.11 ± 0.03 µM
- IC50 ([2]; Homo sapiens, MCF7, Table 18, modified furanose or pyranose noviose replacements, read-out: IC50, MCF7): 1.56 ± 0.09 µM
- IC50 ([2]; Homo sapiens, MCF7, text of Example 47, read-out: IC50 MCF-7): 1.56 ± 0.2 µM
- times/fold more active than DHN2 (anti-proliferative activity) (cancer cell lines): ~3 fold
- times/fold more active than novobiocin (anti-proliferative activity) (cancer cell lines): ~200 fold

SMILES: COc1cccc(-c2cc(C(=O)Nc3cc4c(OC)cc(O[C@@H]5OC(C)(C)[C@H](OC)[C@@H](O)[C@H]5O)c(C)c4oc3=O)ccc2OC)c1 [26d, N-(7-((2R,3R,4S,5R)-3,4-dihydroxy-5-methoxy-6,6-dimethyltetrahydro-2H-pyran-2-yloxy)-5-methoxy-8-methyl-2-oxo-2H-chromen-3-yl)-3′,6-dimethoxybiphenyl-3-carboxamide]
- IC50 [1, 10]: 55.7 ± 6.9 µM
- IC50 [2, 11]: 82.8 µM
- IC50 [3, 12]: 2 ± 0.8 µM
- IC50 [4, 13]: 11.3 ± 2 µM
- fold reduced activity versus the compound with a hydrogen at the 5-position (cancer cell lines): 4 fold

SMILES: COc1cccc(-c2cc(C(=O)Nc3cc4ccc(O[C@@H]5OC(C)(C)[C@H](OC)[C@@H](O)[C@H]5O)c(OC)c4oc3=O)ccc2OC)c1 [26g, N-(7-((2S,3R,4S,5R)-3,4-dihydroxy-5-methoxy-6,6-dimethyltetrahydro-2H-pyran-2-yloxy)-8-methoxy-2-oxo-2H-chromen-3-yl)-3′,6-dimethoxybiphenyl-3-carboxamide]
- IC50 [1, 10]: 13.9 ± 1.2 µM
- IC50 [2, 11]: 9 ± 5.4 µM
- IC50 [3, 12]: 1.1 ± 0.1 µM
- IC50 [4, 13]: 2.3 ± 2.9 µM
- fold increased activity versus the 8-methyl derivative ([4]; PC-3 cells): 10 fold
- fold improved activity over its 8-methyl counterpart (cancer cell lines; breast cancer cells): 2 fold
- fold increased activity over 8-ethyl 26h (cancer cell lines; breast cancer cells): 5 fold

SMILES: COc1cc(O[C@@H]2OC(C)(C)[C@H](OC)[C@@H](O)[C@H]2O)c(C)c2oc(=O)c(NC(=O)c3cc4ccccc4[nH]3)cc12 [26l, N-(7-((2R,3R,4S,5R)-3,4-dihydroxy-5-methoxy-6,6-dimethyltetrahydro-2H-pyran-2-yloxy)-5-methoxy-8-methyl-2-oxo-2H-chromen-3-yl)-1H-indole-2-carboxamide]
- IC50 [1, 10]: 9 ± 0.8 µM
- IC50 [2, 11]: 6.1 ± 1.7 µM
- IC50 [3, 12]: 12.9 ± 4.4 µM
- IC50 [4, 13]: 11.8 ± 1.3 µM
- fold reduced activity versus the compound with a hydrogen at the 5-position (cancer cell lines): 15 fold

SMILES: CO[C@@H]1[C@@H](O)[C@@H](O)[C@H](Oc2ccc3cc(NC(=O)c4cc5ccccc5[nH]4)c(=O)oc3c2Cc2ccccc2)OC1(C)C [26m, N-(8-benzyl-7-((2R,3R,4S,5R)-3,4-dihydroxy-5-methoxy-6,6-dimethyltetrahydro-2H-pyran-2-yloxy)-2-oxo-2H-chromen-3-yl)-1H-indole-2-carboxamide]
- IC50 [1, 10]: 38 ± 3 µM
- IC50 [2, 11]: 13.2 ± 0.6 µM
- fold less active than the 8-methyl derivative ([2]; MCF-7 cells): 23 fold
- IC50 [3, 12]: 67.6 ± 6.3 µM
- IC50 [4, 13]: 73.3 ± 3.7 µM
- fold less active than the 8-methyl analogue (cancer cell lines; PC-3 and LnCaP cells): about 4 fold

SMILES: COc1cccc(-c2cc(C(=O)Nc3cc4ccc(OCCCN(C)C)c(C)c4oc3=O)ccc2OC)c1 [KU-317]
- IC50 [1, 14]: 0.6 ± 0.01 µM
- IC50 [2, 15]: 0.5 ± 0.04 µM
- IC50 [5, 16]: 37.5 µM
- IC50 [6, 17]: 12.8 µM
- IC50 [7, 18]: 13.1 µM

SMILES: COc1cccc(-c2cc(C(=O)Nc3cc4ccc(OCCCN(C)C)c(OC)c4oc3=O)ccc2OC)c1 [KU-319]
- IC50 [1, 14]: 0.91 ± 0.17 µM
- IC50 [2, 15]: 1.53 ± 0.18 µM
- IC50 [5, 16]: 8.03 µM
- IC50 [6, 17]: 4.08 µM
- IC50 [7, 18]: 3.43 µM

SMILES: Cc1c(OC2CCN(C)CC2)ccc2cc(NC(=O)c3cc4ccccc4[nH]3)c(=O)oc12 [KU-361]
- IC50 [1, 19]: 0.48 ± 0.11 µM
- IC50 [2, 20]: 0.57 ± 0.04 µM
- IC50 [5, 21]: 11.8 ± 0.68 µM
- IC50 [6, 22]: 11.4 ± 6.56 µM
- IC50 [7, 23]: 3.91 µM

SMILES: COc1cc2cc(NC(=O)c3cc4ccccc4[nH]3)c(=O)oc2c(C)c1OC1CCN(C)CC1 [KU-363]
- IC50 [1, 19]: 0.11 ± 0.01 µM
- IC50 [2, 20]: 0.52 ± 0.05 µM
- IC50 [5, 21]: 1.47 ± 0.66 µM
- IC50 [6, 22]: 0.87 ± 0.57 µM
- IC50 [7, 23]: 0.59 µM

SMILES: COc1cc2cc(NC(=O)c3cc4ccccc4[nH]3)c(=O)oc2c(C)c1OC1CCCN(C)C1 (centres unmarked) [KU-366]
- IC50 [1, 19]: 0.15 ± 0.06 µM
- IC50 [2, 20]: 0.69 ± 0.12 µM
- IC50 [5, 21]: 14.8 µM
- IC50 [6, 22]: 42.8 µM
- IC50 [7, 23]: > 100 µM

SMILES: CO[C@@H]1[C@@H](O)[C@@H](O)[C@H](Oc2ccc3cc(NC(=O)c4cccc(N)c4)c(=O)oc3c2C)OC1(C)C [compound 19, 3-Amino-N-(7-((2R,3R,4S,5R)-3,4-dihydroxy-5-methoxy-6,6-dimethyltetrahydro-2H-pyran-2-yloxy)-8-methyl-2-oxo-2H-chromen-3-yl)benzamide]
- IC50 ([1]; Homo sapiens, SK-BR-3, Table 2, n = 3, read-out: IC50 SkBr3): 61.4 ± 4.7 µM
- IC50 ([1]; Table 13, various sugars on 8-methyl coumarin, 72 hours, read-out: IC50 SKBr3): 12.5 ± 0.7 µM
- IC50 ([2]; Homo sapiens, MCF7, Table 2, n = 3, read-out: IC50 MCF-7): 30.1 ± 3.4 µM
- IC50 ([2]; Table 13, various sugars on 8-methyl coumarin, 72 hours, read-out: IC50 MCF7): 37.2 ± 2.1 µM
- IC50 ([8]; Table 2, n = 3): 21.2 ± 2.2 µM
- IC50 ([9]; Table 2, n = 3): 12.5 ± 0.9 µM
- IC50 ([3]; Table 2, n = 3, read-out: IC50 LNCaP): 24.8 ± 9.7 µM
- IC50 ([4]; Table 2, n = 3): 14.7 ± 2.6 µM
- IC50 [5, 24]: 3.65 µM
- IC50 [6, 24]: 30.6 µM
- IC50 [7, 24]: > 100 µM

SMILES: COc1ccc(C(=O)Nc2cc3ccc(O[C@@H]4OC(C)(C)[C@H](OC)[C@@H](O)[C@H]4O)c(C)c3oc2=O)cc1-c1ccccc1O [compound 35, N-(7-((2R,3R,4S,5R)-3,4-Dihydroxy-5-methoxy-6,6-dimethyltetrahydro-2H-pyran-2-yloxy)-8-methyl-2-oxo-2H-chromen-3-yl)-2′-hydroxy-6-methoxybiphenyl-3-carboxamide]
- IC50 ([1]; Homo sapiens, SK-BR-3, Table 4, biaryl analogues, n = 3, read-out: IC50 SkBr3): 1.5 ± 0.1 µM
- IC50 ([2]; Homo sapiens, MCF7, Table 4, biaryl analogues, n = 3, read-out: IC50 MCF-7): 1.5 ± 0.1 µM
- IC50 [8, 25]: 4.7 ± 1.4 µM
- IC50 [9, 25]: 1.4 ± 0.2 µM
- IC50 [4, 25]: 16.6 ± 4.4 µM
- fold improved inhibition compared to 28 (cancer cell lines): about 8 fold
